Data on 4 molecules can be found in patent US8133692B2, “Methods of predicting responsiveness to chemotherapeutic agents and selecting treatments” (University of South Florida, priority 2005, dated 2012).

e = 2'-O-(2-methoxyethyl) (MOE); d = 2'-deoxy (DNA)

Holding throughout (type): cell-based, human
In data set [1] the test system is MDA-MB-435s and MDA-MB-231 cells. As to the kind of experiment: Apoptosis assays (microscopy, in situ TUNEL, PARP cleavage Western blot) in breast cancer cells. The procedure: To assess whether apoptosis was occurring in the cells after blocking of Stat3 the cells were examined microscopically and a TUNEL assay and poly-(ADP)-ribose polymerase (PARP) cleavage assay were performed.
(§1) In situ terminal deoxyribonucleotidyl transferase-mediated dUTP nick end labeling and cellular proliferation assays. MDA-MB-435s and MDA-MB-231 cells were transfected with antisense or control mismatch oligonucleotides. After 48 hours, cells were labeled for apoptotic DNA strand breaks by terminal deoxyribonucleotidyl transferase-mediated dUTP nick end labeling (TUNEL) reaction using an in situ cell death detection assay (Roche Applied Science, Indianapolis, Ind.) according to the instructions of the supplier. TUNEL-positive nuclei were counted and the apoptotic index was expressed as the number of apoptotic cells in one microscopic field. To determine cellular viability, cells were harvested by trypsinization and counted by trypan blue exclusion assay at 24 and 48 hours after transfection. All experiments were done in triplicate.
(§2) Western blot analyses. Cells were lysed in a buffer containing 10 mmol/L Tris-HCl (pH 8.0), 150 mmol/L NaCl, 1% NP40, 0.5% sodium deoxycholate, 0.1% SDS, 1 mmol/L EDTA (pH 8.0), 2 mmol/L phenylmethylsulfonyl fluoride, 2 μg/mL aprotinin, 2 μg/mL leupeptin, and 1 mmol/L Na3VO4. For Western blot analyses, 30 μg of total extracted proteins were applied per lane before SDS-PAGE. Following transfer to nitrocellulose membranes, protein expression levels were detected using polyclonal anti-poly-(ADP-ribose) polymerase antibodies (Cell Signaling Technology, Beverly, Mass.). The expression of β-actin (Sigma-Aldrich, St. Louis, Mo.) was used as a normalization control for protein loading.

For data set [2], the system named is Stat3. As to the kind of experiment: IL-6 stimulation: EMSA of Stat3 DNA-binding activity. The settings on record: serum-starved MDA-MB-435s cells; IL-6 20 or 30 ng/mL; within 30 minutes. As for the experimental part: Nuclear extract preparation and EMSA. Nuclear extracts were prepared as previously described by Yu et al., Science 269:81-83 (1995), which is incorporated herein by reference, by high-salt extraction into 30 to 70 μL buffer [20 mmol/L HEPES (pH 7.9), 420 mmol/L NaCl, 1 mmol/L EDTA, 20% glycerol, 20 mmol/L NaF, 1 mmol/L Na3VO4, 1 mmol/L Na4P2O7, 1 mmol/L DTT, 0.5 mmol/L phenylmethylsulfonyl fluoride, 0.1 μmol/L aprotinin, 1 μmol/L leupeptin, and 1 μmol/L antipain]. For EMSA, 5 μg of total nuclear protein were used for each lane. EMSA was done using a ^32P-labeled oligonucleotide probe containing a high-affinity cis-inducible element (hSIE, m67 variant) derived from the c-fos gene promoter (sense strand 5′[…]-3′) (SEQ ID NO: 3) that binds activated Stat3 proteins. Following incubation of radiolabeled probes with nuclear extracts, protein-DNA complexes were resolved by nondenaturing PAGE and detected by autoradiography. Stat3 protein was supershifted in the EMSA by preincubation with Stat3 antibody (C-20X, Santa Cruz Biotechnology, Santa Cruz, Calif.).
To investigate whether cytokine-induced Stat3 activity correlates with increased Survivin expression in breast cancer cells, cells were stimulated with IL-6 to increase Stat3 activation. […]
(Mobility shift assays separate free from complexed probe on a gel.)

Data set [3] concerns MDA-MB-435s cells. The experiment in a line: IL-6 stimulation: Western blot for phosphor-Stat3 and Survivin. The settings on record: IL-6 treatment, after 48 hours. The procedure: as §2
To investigate whether cytokine-induced Stat3 activity correlates with increased Survivin expression in breast cancer cells, cells were stimulated with IL-6 to increase Stat3 activation. For IL-6 stimulation, cells were serum-starved (DMEM supplemented with 0.1% fetal bovine serum) for 18 hours before IL-6 treatment (20 or 30 ng/mL in DMEM) for 30 minutes (EMSA) or 48 hours (Western blot analysis). Nuclear extracts and cell lysates were prepared for EMSA and Western blot analysis, respectively, as described above.
A general note: In western blotting, separated proteins are transferred to a membrane and probed.

Data set [4] concerns phosphorylated Stat3. As to the kind of experiment: Western blot for phosphorylated Stat3 after gefitinib in NSCLC cells. The settings on record: 24 hours. The procedure: (§3) Protein expression analysis. Cell lysates were normalized for total protein content (50 μg) and subjected to SDS-PAGE as described by Song et al., Oncogene 22:4150-65 (2003). Primary antibodies used in these studies consisted of Stat3 (Transduction Laboratories; BD Biosciences, Mississauga, Ontario, Canada), pStat3 Y705 (Cell Signaling Technology), cleaved poly (ADP-ribose) polymerase (Cell Signaling Technology, Beverly, Mass.), Mcl-1 (Santa Cruz Biotechnology, Santa Cruz, Calif.), Bcl-2 (DAKO, Carpinteria, Calif.), Bcl-xL (PharMingen, San Diego, Calif.), and β-actin (Sigma-Aldrich, Milwaukee, Wis.). Detection of proteins was accomplished using horseradish peroxidase-conjugated secondary antibodies and enhanced chemiluminescence purchased through Amersham Biosciences (Pittsburgh, Pa.).

The subject of data set [5] is Stat3 mRNA. As to the kind of experiment: RNase protection assay of Stat3 mRNA after transfection with antisense oligonucleotides. The settings on record: MDA-MB-435s cells; compared with the mismatch oligonucleotides; 24 and 36 hours after transfection. As for the experimental part: (§4) The human breast cancer cell line MDA-MB-435s, harbors activated Stat3. The cells were grown in DMEM supplemented with 10% fetal bovine serum, 100 units/mL penicillin, and 100 μg/mL streptomycin. The cells were transfected with Stat3 antisense or mismatch oligonucleotides using Lipofectamine-Plus as described by the supplier (Life Technologies, Grand Island, N.Y.). The Stat3 antisense (5′[…]-3′) (SEQ ID NO: 1) and control mismatch (5′[…]-3′) (SEQ ID NO: 2) oligonucleotides were synthesized using phosphorothioate chemistry. To increase stability, oligonucleotides were synthesized with 2′-O-methoxyethyl modification of the five or three underlined terminal nucleotides. The final concentration for Stat3 antisense and control mismatch oligonucleotides was […]. Twenty-four and 36 hours after transfection, the mRNA levels and DNA-binding activities of Stat3 were measured by RNase protection and electrophoretic mobility shift (EMSA) assays, respectively.
RNase protection assay. Total RNA was isolated from MDA-MB-435s cells using the RNAeasy mini kit (Qiagen, Valencia, Calif.). RNase protection assays were carried out with the Riboquant hStress-1 template set containing Bcl-xL and Mcl-1 probes or custom-made multiprobe templates containing Stat3 probes (BD PharMingen, San Diego, Calif.). […]

Data set [6] has as its system Stat3. As to the kind of experiment: EMSA of Stat3 DNA-binding activity after antisense transfection. The settings on record: MDA-MB-435s cells, 24 and 36 hours after transfection. The procedure: as §4
Nuclear extract preparation and EMSA. […] Following incubation of radiolabeled probes with nuclear extracts, protein-DNA complexes were resolved by nondenaturing PAGE and detected by autoradiography. […]

The subject of data set [7] is MDA-MB-435s and MDA-MB-231 cells. The experiment in a line: Cellular viability by trypan blue exclusion assay. The settings on record: after 24 or 48 hours of incubation. The procedure:
as §1

Data set [8] deals with MDA-MB-435s cells. The experiment in a line: Microarray gene expression profiling after blockade of Stat3. The settings on record: 24 hours. As for the experimental part:
Microarray gene expression profiling analyses were completed to assess the gene expression changes associated with blockade of Stat3 activity. Five micrograms of total RNA collected from MDA-MB-435s cells treated with antisense or control mismatch oligonucleotides for 24 hours served as the mRNA sources for microarray analysis. The poly(A) mRNA was specifically converted to cDNA and then amplified and labeled with biotin following the procedure initially described by Van Gelder et al., Proc. Natl. Acad. Sci. USA 87:1663-67 (1990) which is incorporated herein by reference. Hybridization with the biotin-labeled DNA, staining, and scanning of the microarray chips followed the prescribed procedure outlined in the Affymetrix technical manual.
The oligonucleotide probe arrays were Human Genome U133A chips (Affymetrix, Santa Clara, Calif.). Scanned output files were visually inspected for hybridization artifacts and then analyzed using Affymetrix Microarray MAS 5.0 software. The MAS 5.0 software identifies the increased and decreased genes between any two samples with a statistical algorithm that assesses the behavior of oligonucleotide probe sets designed to detect the same gene. Probe sets that yielded a change at P<0.0045 were identified as changed (increased or decreased). In addition, the data were processed using robust multiarray analysis as described by Bolstad et al., Bioinformatics 19:185-93 (2003) which is incorporated herein by reference in its entirety. […] Empirical estimates of the null distribution were determined using permutation analysis, thereby controlling the number of false positives. The significance analysis of microarrays (as described by Tusher et al., Proc Natl Acad Sci USA 98:5116-21 (2001), which is incorporated herein by reference) implements this approach to address the multiple testing problem and was also applied to the data analysis.

Data set [9] deals with Survivin. The experiment in a line: RNase protection assay and Western blot for Survivin after Stat3 antisense. The procedure: RNase protection assay. Total RNA was isolated from MDA-MB-435s cells using the RNAeasy mini kit (Qiagen, Valencia, Calif.). RNase protection assays were carried out with the Riboquant hStress-1 template set containing Bcl-xL and Mcl-1 probes or custom-made multiprobe templates containing Stat3 probes (BD PharMingen, San Diego, Calif.). Briefly, the multiprobe templates were synthesized by in vitro transcription with incorporation of […] and purified on Quick Spin RNA columns (Roche Applied Science, Indianapolis, Ind.). Labeled probe (1×10^6 cpm) was hybridized with 10 μg of total RNA through a temperature gradient of 90° C. to 56° C. over a 16-hour period. […]
Western blot analyses. […] Following transfer to nitrocellulose membranes, protein expression levels were detected using polyclonal anti-poly-(ADP-ribose) polymerase antibodies (Cell Signaling Technology, Beverly, Mass.). […]
The microarray data were validated using an RNase protection assay using a Survivin probe (BD PharMingen, San Diego, Calif.) as described above. […] Protein expression levels were detected using polyclonal anti-Stat3 (Santa Cruz Biotechnology, Santa Cruz, Calif.) and polyclonal anti-Survivin (Alpha Diagnostics International, San Antonio, Tex.) antibodies.

For data set [10], the system named is H1650, H1975 and H1299 cells. As to the kind of experiment: Western blot for Stat3, cleaved PARP and Bcl-2 family proteins after antisense Stat3 in NSCLC cells. The procedure: as §3
To determine if Stat3 plays a role in survival in EGFR mutant cells, antisense Stat3 oligonucleotides were used to down-regulate Stat3 as described above. […] Levels of the Bcl-2 family proteins Bcl-xL, Mcl-1, and Bcl-2 were reduced in cells treated with antisense Stat3 consistent with the known role of Stat3 in regulating these proteins (FIG. 9E).

The mark [11] stands for this setting: Survivin antisense 300 nmol/L, MDA-MB-435s and MDA-MB-231 cells.

In the case of “antisense oligonucleotides directed against Survivin: Antisense oligonucleotides directed against Survivin 5′-CCCAGCCTTCCAGCTCCTTG-3′ (SEQ ID NO: 4), synthesized using phosphorothioate chemistry (sugars from the 5' end e3 d14 e3, all phosphorothioate, methylation of C not given here; listed as Homo sapiens)”, in [1] (setting [11]), the “Poly-(ADP-ribose) polymerase cleavage” value was “evident” and the “in situ TUNEL staining” value is “evident”.

Consider “IL-6: interleukin-6, cytokine used to stimulate cells and increase Stat3 activation”, for which the “Stat3 DNA-binding activity (EMSA)” value in data set [2] is reported as “increases Stat3 DNA-binding activity”. Moreover, in data set [3], the “Survivin protein expression (Western blot)” value is “induced” and the “phosphor-Stat3 levels (Western blot)” value was “induced”.

As for `COc1cc2ncnc(Nc3ccc(F)c(Cl)c3)c2cc1OCCCN1CCOCC1` [gefitinib, Gefitinib], the “phosphorylated Stat3” value in data set [4] (H1650 cells with the L746-p753 deletion mutation in EGFR) was “no effect on phosphorylated Stat3”; in [4] (H1975 cells), “no effect on phosphorylated Stat3”; in data set [4] (H3255 cells with the L858R mutation in EGFR, increasing doses) it was “complete inhibition of phosphorylated Stat3”.

“Stat3 antisense: Stat3 antisense 5′GCTCCAGCATCTGCTGCTTC-3′ (SEQ ID NO: 1), phosphorothioate chemistry with 2′-O-methoxyethyl modification of terminal nucleotides (sugars from the 5' end e5 d10 e5, all phosphorothioate, methylation of C not given here; listed as Homo sapiens)”: the “Stat3 mRNA expression” value in data set [5] is on record as “diminished Stat3 mRNA expression”. In data set [6], the “Stat3 DNA-binding activity” value is listed as “significant decrease in Stat3 DNA-binding activity”. The “apoptosis by in situ TUNEL assay” value in data set [1] (Stat3 antisense, 48 hours) is “occurrence of apoptosis was confirmed”. For the same molecule, the “cleavage of poly-(ADP-ribose) polymerase” value in [1] (Stat3 antisense, 48 hours after treatment) was “cleavage of poly-(ADP-ribose) polymerase”. The “vacuolated cells and cellular debris (light microscopy)” value in data set [1] (incubation for up to 48 hours) is “marked increase in vacuolated cells and cellular debris”. For the same molecule, the “growth inhibition by trypan blue exclusion” value in [7] was “induced significant growth inhibition”. Also, in data set [8], the “expression of Bcl-2 family proteins by microarray analysis” value was “did not reveal consistent decreases” and the “expression of other IAP family members (X-linked IAP, cellular IAP-1, cellular IAP-2) by microarray” value was “no change”. In data set [8] (antisense vs control mismatch), the “expression of Survivin by microarray analysis” value is recorded as “found to be diminished”. In [9] (antisense oligonucleotide-treated breast cancer cells), the “mRNA expression of Survivin (RNase protection assay)” value is “decrease in mRNA expression of Survivin”. The “Survivin protein expression (Western blot)” value in data set [9] (breast cancer cells) is “decreased Survivin expression”. The apoptosis result in data set [10] (H1299 cells, despite Stat3 knock-down) was “No apoptosis was observed”. Moreover, in data set [10] (H1650 and H1975 cells), the Stat3 protein levels entry was “decreased Stat3 protein levels” and the “cleavage of poly(ADP-ribose) polymerase indicative of apoptosis” value is reported as “cleavage of poly(ADP-ribose) polymerase”. Besides, the “Levels of the Bcl-2 family proteins Bcl-xL, Mcl-1, and Bcl-2” value in [10] (cells treated with antisense Stat3 vs mismatch control) is “reduced”.
